In patent US6329502A, “β-amino-α-hydroxycarboxylic acid derivatives and HIV protease inhibitors” (priority 1990, dated 2001):

target: recombinant HIV protease (Human immunodeficiency virus type 1 group M subtype B, UniProt P12497); conditions: inhibitor 5 μM (final concentration), 2.0 μg enzyme

**Q.** How did the residual enzymic activity turn out when CC[C@H](C)[C@H](NC(=O)[C@@H]1CCCN1C(=O)[C@@H](O)[C@H](Cc1ccccc1)NC(=O)[C@H](CC(N)=O)NC(=O)OCc1ccccc1)C(=O)NCC1CCCCC1 [Example 32, Benzyloxycarbonyl-Asn-(2S,3S)-AHPBA-Pro-Ile-NH--CH2 --C6 H11] was run?
**A.** 11.0%

target: T1, chemically synthesized HIV protease (Human immunodeficiency virus type 1 group M subtype B, UniProt P12497, C555A/C583A); assay type: biochemical; conditions: inhibitor 5 μM (final concentration)
T1 construct: The HIV protease was chemically synthesized; made in house; host or cells: chemical peptide synthesis, no expression host
Procedure: The HIV protease was chemically synthesized by replacement of two cysteine residues in the natural sequence [Science, 230, 349 (1985)] with alanine residues. The reaction mixture contained 100 mM MES buffer (pH 5.5), 40 mM of substrate (Ac-[…]NH2 trifluoro-acetate), inhibitors at varying concentrations dissolved in DMSO and 9.2 μg of the HIV protease in a total volume of 15 μl. Incubation was carried out at 37° C. for 60 min. The reaction was started by the addition of the enzyme and terminated by 15 μl of acetonitrile. The amount of a fragment peptide produced was measured by reversed-phase HPLC analysis using an internal standerd. The HPLC condition was as followes.
Solvent A: 0.1% trifluoroacetic acid aqueous solution
Gradient: B was increased in 1.0%/min from 100% of A,

**Q.** Which “Residual Activity (%) 5 μM” value does the source give for CC[C@H](C)[C@H](NC(=O)[C@@H]1CCCN1C(=O)[C@@H](O)[C@H](Cc1ccccc1)NC(=O)[C@H](CC(N)=O)NC(=O)OCc1ccccc1)C(=O)NCC1CCCCC1 [Example 32, Benzyloxycarbonyl-Asn-(2S,3S)-AHPBA-Pro-Ile-NH--CH2 --C6 H11] here?
**A.** 4.0%

same assay, conditions: inhibitor 1 mM

**Q.** With CC(C)(C)OC(=O)N[C@@H](CC(N)=O)C(=O)N[C@@H](Cc1ccccc1)[C@@H](O)C(=O)NCC1CCCCC1 [Example 1, Boc-Asn-(2R,3S)-AHPBA-NH--CH2 --C6 H11] as the compound, how does the “Residual Activity (%) 1 mM” value read?
**A.** 32.8%

**Q.** With CC(C)(C)OC(=O)N[C@@H](Cc1ccccc1)C(=O)N[C@@H](CC(N)=O)C(=O)N[C@@H](Cc1ccccc1)[C@@H](O)C(=O)NCC1CCCCC1 [Example 2, Boc-Phe-Asn-(2R,3S)-AHPBA-NH--CH2 --C6 H11] as the compound, how does the “Residual Activity (%) 1 mM” value read?
**A.** 19.5%

**Q.** For CC(C)(C)OC(=O)N[C@@H](CC(N)=O)C(=O)N[C@@H](Cc1ccccc1)[C@H](O)C(=O)NCC1CCCCC1 [Example 3, Boc-Asn-(2S,3S)-AHPBA-NH--CH2 --C6 H11], which “Residual Activity (%) 1 mM” value is on record?
**A.** 52.9%

**Q.** With CC(C)(C)OC(=O)N[C@@H](Cc1ccccc1)C(=O)N[C@@H](CC(N)=O)C(=O)N[C@@H](Cc1ccccc1)[C@H](O)C(=O)NCC1CCCCC1 [Example 4, Boc-Phe-Asn-(2S,3S)-AHPBA-NH--CH2 --C6 H11] as the compound, how does the “Residual Activity (%) 1 mM” value read?
**A.** 20.3%

**Q.** Which “Residual Activity (%) 1 mM” value does the source give for CC(C)(C)OC(=O)N[C@@H](CO)C(=O)N[C@@H](Cc1ccccc1)[C@@H](O)C(=O)NCC1CCCCC1 [Example 5, Boc-Ser-(2R,3S)-AHPBA-NH--CH2 --C6 H11] here?
**A.** 82.9%

**Q.** CC(C)(C)OC(=O)N[C@@H](Cc1ccccc1)C(=O)N[C@@H](CO)C(=O)N[C@@H](Cc1ccccc1)[C@@H](O)C(=O)NCC1CCCCC1 [Example 6, Boc-Phe-Ser-(2R,3S)-AHPBA-NH--CH2 --C6 H11] was tested. Which “Residual Activity (%) 1 mM” value did it give?
**A.** 33.3%

**Q.** CC(C)(C)OC(=O)N[C@@H](CO)C(=O)N[C@@H](Cc1ccccc1)[C@H](O)C(=O)NCC1CCCCC1 [Example 7, Boc-Ser-(2S,3S)-AHPBA-NH--CH2 --C6 H11] was tested. Which “Residual Activity (%) 1 mM” value did it give?
**A.** 15.6%

**Q.** With CC(C)(C)OC(=O)N[C@@H](Cc1ccccc1)C(=O)N[C@@H](CO)C(=O)N[C@@H](Cc1ccccc1)[C@H](O)C(=O)NCC1CCCCC1 [Example 8, Boc-Phe-Ser(2S,3S)-AHPBA-NH--CH2 --C6 H11] as the compound, how does the “Residual Activity (%) 1 mM” value read?
**A.** 47.0%

**Q.** NC(=O)C[C@H](N)C(=O)N[C@@H](Cc1ccccc1)[C@@H](O)C(=O)NCC1CCCCC1 [Example 9, H-Asn-(2R,3S)-AHPBA-NH--CH2 --C6 H11] was tested. Which “Residual Activity (%) 1 mM” value did it give?
**A.** 92.1%

**Q.** For NC(=O)C[C@H](NC(=O)[C@@H](N)Cc1ccccc1)C(=O)N[C@@H](Cc1ccccc1)[C@@H](O)C(=O)NCC1CCCCC1 [Example 10, H-Phe-Asn-(2R,3S)-AHPBA-NH--CH2 --C6 H11], which “Residual Activity (%) 1 mM” value is on record?
**A.** 43.4%

**Q.** How did the “Residual Activity (%) 1 mM” value turn out when NC(=O)C[C@H](NC(=O)[C@@H](N)Cc1ccccc1)C(=O)N[C@@H](Cc1ccccc1)[C@H](O)C(=O)NCC1CCCCC1 [Example 11, H-Phe-Asn-(2S,3S)-AHPBA-NH--CH2 --C6 H11] was run?
**A.** 16.4%

**Q.** With N[C@@H](CO)C(=O)N[C@@H](Cc1ccccc1)[C@@H](O)C(=O)NCC1CCCCC1 [Example 12, H-Ser-(2R,3S)-AHPBA-NH--CH2 --C6 H11] as the compound, how does the “Residual Activity (%) 1 mM” value read?
**A.** 89.7%

**Q.** How did the “Residual Activity (%) 1 mM” value turn out when N[C@@H](Cc1ccccc1)C(=O)N[C@@H](CO)C(=O)N[C@@H](Cc1ccccc1)[C@@H](O)C(=O)NCC1CCCCC1 [Example 13, H-Phe-Ser-(2R,3S)-AHPBA-NH--CH2 --C6 H11] was run?
**A.** 58.9%

**Q.** Which “Residual Activity (%) 1 mM” value does the source give for N[C@@H](CO)C(=O)N[C@@H](Cc1ccccc1)[C@H](O)C(=O)NCC1CCCCC1 [Example 14, H-Ser-(2S,3S)-AHPBA-NH--CH2 --C6 H11] here?
**A.** 95.5%

**Q.** N[C@@H](Cc1ccccc1)C(=O)N[C@@H](CO)C(=O)N[C@@H](Cc1ccccc1)[C@H](O)C(=O)NCC1CCCCC1 [Example 15, H-Phe-Ser-(2S,3S)-AHPBA-NH--CH2 --C6 H11] was tested. Which “Residual Activity (%) 1 mM” value did it give?
**A.** 23.8%

**Q.** How did the “Residual Activity (%) 1 mM” value turn out when CC[C@H](C)[C@H](NC(=O)[C@@H]1CCCN1C(=O)[C@@H](O)[C@H](Cc1ccccc1)NC(=O)OC(C)(C)C)C(=O)OC1CCCCC1 [Example 28, Boc-(2S,3S)-AHPBA-Pro-Ile-O--C6 H11] was run?
**A.** 63.9%

**Q.** Which “Residual Activity (%) 1 mM” value does the source give for CC[C@H](C)[C@H](NC(=O)[C@@H]1CCCN1C(=O)[C@H](O)[C@H](Cc1ccccc1)NC(=O)OC(C)(C)C)C(=O)OC1CCCCC1 [Example 29, Boc-(2R,3S)-AHPBA-Pro-Ile-O--C6 H11] here?
**A.** 88.3%

**Q.** Which “Residual Activity (%) 1 mM” value does the source give for CC[C@H](C)[C@H](NC(=O)[C@@H]1CCCN1C(=O)[C@@H](O)[C@H](Cc1ccccc1)NC(=O)OC(C)(C)C)C(=O)NCC1CCCCC1 [Example 30, Boc-(2S,3S)-AHPBA-Pro-Ile-NH--CH2 --C6 H11] here?
**A.** 23.4%

**Q.** How did the “Residual Activity (%) 1 mM” value turn out when CC[C@H](C)[C@H](NC(=O)[C@@H]1CCCN1C(=O)[C@H](O)[C@H](Cc1ccccc1)NC(=O)OC(C)(C)C)C(=O)NCC1CCCCC1 [Example 31, Boc-(2R,3S)-AHPBA-Pro-Ile-NH--CH2 --C6 H11] was run?
**A.** 47.4%

**Q.** Which “Residual Activity (%) 1 mM” value does the source give for “Boc-(2S,3S)-AHPBA-(cHexm)Gly-Ile-NH--CH2 --C6 H11 [Example 33]” here?
**A.** 85.6%

**Q.** “H-Val-Val-(2R,3S)-AHPBA-(D)-Phe-(D)-Val-(D)-Val-NH2 [Example 23]” was tested. Which “Residual Activity (%) 1 mM” value did it give?
**A.** 28.3%
